From ChEMBL document CHEMBL1201862, “PubChem BioAssay data set” (2004)
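48-hour exposure; five concentrations; linearly interpolated endpoints. Here, GI50 denotes the concentration required for 50% inhibition of growth.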 Calls of active or inactive are those of the source. Cut-off read from the data, not from the text of the source: active = GI50 up to about 1.1 µM and inactive = higher.

Columns and labels:
Test in all cases: inhibition of tumour cell growth, NCI panel, 48 h
A549 = system: A549
CAKI-1 = system: CAKI-1
EKVX = system: EKVX
HCT-15 = system: HCT-15
HT-29 = system: HT-29
M14 = system: M14
NCI-H226 = system: NCI-H226
NCI-H522 = system: NCI-H522
OVCAR-3 = system: OVCAR-3
OVCAR-8 = system: OVCAR-8
RPMI-8226 = system: RPMI-8226
RXF 393 = system: RXF 393
SF-539 = system: SF-539
SK-OV-3 = system: SK-OV-3
SR = system: SR
SW-620 = system: SW-620
U-251 = system: U-251
UACC-257 = system: UACC-257
CCRF-CEM = system: CCRF-CEM

SMILES	GI50 (A549)	GI50 (CAKI-1)	GI50 (EKVX)	GI50 (HCT-15) [µM]	GI50 (HT-29)	GI50 (M14)	GI50 (NCI-H226)	GI50 (NCI-H522)	GI50 (OVCAR-3)	GI50 (OVCAR-8)	GI50 (RPMI-8226)	GI50 (RXF 393)	GI50 (SF-539)	GI50 (SK-OV-3)	GI50 (SR)	GI50 (SW-620)	GI50 (U-251)	GI50 (UACC-257)	GI50 (CCRF-CEM)
COc1ccc(OC)c(-c2cc(C(=O)O)c3cc4ccccc4cc3n2)c1	> 100 µM (inactive)	> 100 µM (inactive)	> 100 µM (inactive)	> 100	> 100 µM (inactive)	> 100 µM (inactive)	37.3 µM (inactive)	> 100 µM (inactive)	> 100 µM (inactive)	> 100 µM (inactive)	> 100 µM (inactive)	> 100 µM (inactive)	> 100 µM (inactive)	> 100 µM (inactive)	> 100 µM (inactive)	> 100 µM (inactive)	> 100 µM (inactive)	> 100 µM (inactive)	
COc1ccc2c(c1)CCc1c-2nc2cc3c(cc2c1O)OCO3	> 100 µM (inactive)	> 100 µM (inactive)	> 100 µM (inactive)	> 100	> 100 µM (inactive)	> 100 µM (inactive)	> 100 µM (inactive)	> 100 µM (inactive)	> 100 µM (inactive)	> 100 µM (inactive)	> 100 µM (inactive)	> 100 µM (inactive)	> 100 µM (inactive)	> 100 µM (inactive)	> 100 µM (inactive)	> 100 µM (inactive)	> 100 µM (inactive)		> 100 µM (inactive)
CC(=O)N1C(OCc2ccccc2)CCN1c1ccccc1 (stereo not drawn)	> 10 µM (inactive)	> 10 µM (inactive)		> 10	> 10 µM (inactive)	> 10 µM (inactive)	> 10 µM (inactive)	> 10 µM (inactive)	> 10 µM (inactive)	> 10 µM (inactive)	> 10 µM (inactive)	> 10 µM (inactive)	> 10 µM (inactive)	> 10 µM (inactive)	> 10 µM (inactive)	> 10 µM (inactive)		> 10 µM (inactive)	> 10 µM (inactive)
COc1ccc(N[S+]([O-])c2cccc(C)c2)cc1 (stereo not drawn)	29.3 µM (inactive)	98.6 µM (inactive)	12.2 µM (inactive)	5.21	92.9 µM (inactive)	> 100 µM (inactive)	> 100 µM (inactive)	8.59 µM (inactive)	> 100 µM (inactive)	52.1 µM (inactive)	26.2 µM (inactive)	54.5 µM (inactive)	27.8 µM (inactive)		35.9 µM (inactive)	57.5 µM (inactive)	79.1 µM (inactive)	> 100 µM (inactive)	48 µM (inactive)
Cc1cc(N(CCC#N)CCC#N)ccc1C(/N=N/c1ccccc1)=N\NC(=O)c1ccccc1	38.8 µM (inactive)	28.2 µM (inactive)	39.4 µM (inactive)	18.3	16.8 µM (inactive)	69 µM (inactive)	43.4 µM (inactive)	16.3 µM (inactive)	30.3 µM (inactive)	24.3 µM (inactive)	42.7 µM (inactive)	58.1 µM (inactive)	17.4 µM (inactive)	53.5 µM (inactive)	6.81 µM (inactive)		35.7 µM (inactive)	38.5 µM (inactive)	18.6 µM (inactive)
O=C1CN(c2ccccc2)Cc2nc(Cl)ccc2N1	> 100 µM (inactive)	> 100 µM (inactive)	> 100 µM (inactive)	> 100	> 100 µM (inactive)	> 100 µM (inactive)	> 100 µM (inactive)	> 100 µM (inactive)		> 100 µM (inactive)	> 100 µM (inactive)	25.6 µM (inactive)	> 100 µM (inactive)	> 100 µM (inactive)	> 100 µM (inactive)	> 100 µM (inactive)	> 100 µM (inactive)	> 100 µM (inactive)	> 100 µM (inactive)
COC(=O)c1cc(C#N)[nH]c1-c1cccs1	> 100 µM (inactive)	56.8 µM (inactive)	91.2 µM (inactive)	57.4		> 100 µM (inactive)	> 100 µM (inactive)	33.9 µM (inactive)	56.5 µM (inactive)	> 100 µM (inactive)	36.6 µM (inactive)	22.6 µM (inactive)	> 100 µM (inactive)	> 100 µM (inactive)	> 100 µM (inactive)	> 100 µM (inactive)	> 100 µM (inactive)	> 100 µM (inactive)	48.6 µM (inactive)
CCOC(=O)/C(=C\n1c(=O)sc2ccccc21)C(=O)c1ccccc1	> 100 µM (inactive)	25.4 µM (inactive)	> 100 µM (inactive)	> 100	> 100 µM (inactive)	> 100 µM (inactive)	> 100 µM (inactive)	48 µM (inactive)		> 100 µM (inactive)	39.6 µM (inactive)	> 100 µM (inactive)	> 100 µM (inactive)	> 100 µM (inactive)	58.7 µM (inactive)	> 100 µM (inactive)	> 100 µM (inactive)	> 100 µM (inactive)	> 100 µM (inactive)
